Reference: US20230065158A1, “OXABICYCLOHEPTANES FOR TREATMENT OF SMALL CELL LUNG CANCER” (Lixte Biotechnology, Inc., priority 2021, published 2023)
Where two headings read alike, the source gives them in different places.

What was measured:
H146 cells = assay: Cell Counting Kit-8 cytotoxicity, H146
Description: (§2) To determine specific cytotoxicity, we used Cell Counting Kit-8 (Dojindo Molecular Technologies, Rockville, Md.) as previously described (50).

H69 cells = assay: Transendothelial extravasation assay through HUVEC monolayer, H69; type: cell-based; conditions: after 20 h of drug treatment
Method: FIGS. 3A-3H depict SCLC cell invasion through HUVEC monolayer. FIGS. 3A-3D: Graphical representation of H524/H69 cell ability to disrupt a confluent HUVEC monolayer using an electrical substrate-impedance sensing system. Arrows indicate time point when cells were added. Inserts show mean values and SD for each group after 20 h of drug treatment. After treatment, cell viability was counted using an Auto T4 Cell Counter (Nexcelom Cellometer). […] Whole cell Pt accumulation. Graphical representation of LB-100 effect on platinum uptake by SCLC cells. Cells were pretreated with LB-100 (H524—5 μM; H69—20 μM) overnight, then treated with carboplatin for one or four hours (H524—10 μM; H69—30 μM). Whole cell pellet was used for platinum (Pt) measurement. Values are normalized to total protein concentration. FIGS. 3E and 3F: Panels show mean values and SD of Pt accumulation for each group. […] Effect of LB-100 on PP2A expression and apoptosis regulatory proteins in H524 and H69 cells. […]
To discern the effect of LB100 on cell invasion, we tested the ability of SCLC cells to invade though a layer of endothelial cells (ECs). Toward this end, we measured the trans-endothelial monolayer resistance using an electrical substrate-impedance sensing system (Applied Biophysics, Troy, N.Y., USA), as previously described (24). […]

H526 cells = assay: Cell Counting Kit-8 cytotoxicity, H526
Description: as §2

H524 and H69 cells = assay: Colony formation assay; type: cell-based; conditions: both cell lines; H524/H69: LB-100 2.5/20 μM, carboplatin 4/20 μM, etoposide 3/30 μM
Method: (§1) A Mann-Whitney U test was used for comparison between the normal and SCLC samples. FIG. 1B: IHC for PP2A was conducted on TMA tissue sections and images were captured at 4× or 20× using a 3D-Histech PANNORAMIC SCAN whole slide scanner (3D-Histech, Budapest, Hungary). […] TMAs were scored in normal (n=24) and tumor (n=79) cores on a scale from 0 (no staining/no protein expression) to 3+(strong staining/high protein expression). FIG. 1C: Summary bar graph of the average PP2A subunit staining. IHC staining intensity of normal and tumor cores. […] FIG. 1D: In order to compare the expression of PP2A subunits A and C, cell lysates from seven SCLC cell lines and HBEC 3KT (non-malignant cell line) were subjected to western blotting. FIG. 1E: PP2A activity was determined using a serine/threonine phosphatase activity assay (Millipore) after 24 h exposure to cantharidin (10 μM) and LB-100 (5 μM). […] The Cell Counting Kit-8 assay detected cell H524 and H69 cell viability. […] FIGS. 1I-1K: Graphs depict the mean+SEM of percent viability for cells (n=3). Colony formation assays were used to count the ability of H524 (FIGS. 11 and 1J) and H69 (FIGS. 1K and 1L) cells to form colonies. […] Representative images of colonies at 4× are shown under the graph (n=2).*p<0.05; **, p<0.01; *** p<0.001; ****, p<0.0001. Experiments were repeated in triplicate and representative data are shown.

H446 cells = assay: Cell Counting Kit-8 cytotoxicity, H446
Description: as §2

H524 cells = assay: Cell Counting Kit-8 cytotoxicity and drug combination, H524
Method: as §1

| Compound | IC50 (H146 cells; Homo sapiens, NCI-H146, 72 h, read-out: Cytotoxicity IC50, H146) | % change of HUVEC barrier disruption (transmigration) (H69 cells) | IC50 (H526 cells; Homo sapiens, NCI-H526, 72 h, read-out: Cytotoxicity IC50, H526) | colony formation (H524 and H69 cells) | IC50 (H446 cells; Homo sapiens, NCI-H446, 72 h, read-out: Cytotoxicity IC50, H446) | IC50 (H524 cells; Homo sapiens, NCI-H524, 72 h, read-out: Cytotoxicity IC50, H524, 72 hours) | IC50 (H524 cells; human, 72 h) | IC50 (H146 cells; read-out: Cytotoxicity IC50, H146, 72 hours) | IC50 (H526 cells; read-out: Cytotoxicity IC50, H526, 72 hours) | IC50 (H446 cells; read-out: Cytotoxicity IC50, H446, 72 hours) | IC50 (H524 cells; read-out: Cytotoxicity IC50, H524, 72 hours) |
| --- | --- | --- | --- | --- | --- | --- | --- | --- | --- | --- | --- |
| C[NH+]1CCN(C(=O)C2C(C(=O)O)[C@H]3CC[C@@H]2O3)CC1 (stereo in doubt) [LB-100, 3-[(4-Methylpiperazin-1-yl)carbonyl]-7-oxabicyclo[2.2.1]heptane-2-carboxylic acid] | ~20 µM | 12.3 ± 0.92% | < 8 µM | significantly reduced colony formation | < 8 µM | < 8 µM | 5.3 µM |  |  |  |  |
| N.N.O=C([O-])C1(C(=O)[O-])CCC1.[Pt+2] [Carboplatin, reference compound] |  | 14.9 ± 1.24% |  | significantly reduced colony formation |  |  |  | 8.3 µM | 33.2 µM | 26.2 µM | 8.2 µM |
